Results: article PMC3805573, “Methylglyoxal Evokes Pain by Stimulating TRPA1” (PLoS ONE, 2013)

Legend:
TRPA1 [1] = experiment: Outward TRPA1 currents in absence of Ca2+, effect of DTT; format: cell-based; details: MG 1 mM, +60 mV, Ca2+-free
Description: (§1) DRG neurons and TRPA1 CHO cells were studied under voltage-clamp conditions using an Axopatch 200B amplifier and pClamp 10.0 software (Molecular Devices, Sunnyvale, CA). Except where stated otherwise, whole cell recordings were performed at a holding potential of –60 mV using an extracellular solution with the composition described above for [Ca^2+]i measurements. Borosilicate glass pipettes (2–5 MΩ, 75–80% series resistance compensation) were filled with (in mM) 140 KCl, 1 CaCl2, 2 MgATP, 10 EGTA, and 10 HEPES buffered to pH 7.4 (KOH). Excised inside-out patches were recorded using a Ca^2+-free solution containing (in mM) 140 NaCl, 5 KCl, 1 MgCl2, 10 HEPES and 1 EGTA, pH 7.4 (NaOH) in the pipettes and perfused with 140 KCl, 2 MgATP, 1 EGTA, and 10 HEPES (pH 7.4). DRG neurons were studied using an intracellular solution containing (in mM) 140 CsCl, 1 CaCl2, 2 MgATP, 10 EGTA and 10 HEPES, pH 7.4 (CsOH). Drugs were applied by local microperfusion with a rapid solution changer (RSC-200, Biologic, Claix, France).
It is possible that MG stimulates TRPA1 through formation of reversible hemithioacetals with cysteine residues other than those examined here, [40]. To investigate this possibility we examined the effect of the reducing agent dithiothreitol (DTT, 2 mM) on outward TRPA1 currents recorded in the absence of Ca^2+ (5 mM BAPTA intracellularly, 1 mM EGTA extracellularly) to avoid Ca^2+-mediated inactivation or desensitization. We used DTT to determine whether disulfide bridge formation or reversible noncovalent interactions contribute to the agonist activity of MG. DTT is expected to rapidly reduce cystine bridges to free thiols, but also to form hemithioacetals with MG, thereby accelerating current decay. Covalent modification of arginine and lysine residues by MG and modification of cysteine residues by AITC are on the other hand resistant to DTT [31]. […] This is consistent with the expected oxidative formation of cystine bridges and their reduction by DTT [4]. The contrast between the stable currents produced by H2O2 and the spontaneously reversible currents evoked by MG highlights the reversible nature of the interaction between MG and TRPA1. […] We also observed that repeated applications of MG and H2O2 evoked reproducible current responses of similar amplitudes, whereas an application of AITC prevented subsequent channel activation by AITC challenges (Fig. 4C-E). We conclude that MG acts through a reversible interaction with TRPA1 and that H2O2 relies on DTT sensitive oxidative modification of TRPA1 protein for its activity. […] In contrast, the covalent modification produced by AITC appears irreversible and renders TRPA1 refractory to subsequent activation.

TRPA1 [2] = experiment: Excised inside-out patches, TRPA1 channel activity; format: cell-based; details: inside-out configuration, applied to intracellular face
Description: as §1

DRG neurons = experiment: Voltage clamp recordings of DRG neurons; format: cell-based, mice; details: -60 mV, 15 µM Ca2+, a proportion of neurons
Description: DRG neurons were prepared from adult male or female mice using methods described previously. Isolated neurons were maintained in MEM AQ (5.6 mM glucose) supplemented with 10% fetal bovine serum, 100 U/ml penicillin, 100 µg/ml streptomycin and 50 ng/ml NGF (Promega, Southampton, UK) for less than 24 hours before experimentation.
as §1

MDCK cells = experiment: [Ca2+]i-measurements in MDCK cells; format: cell-based, Canine
Description: MDCK cells were grown in DMEM (Invitrogen) supplemented with 5% fetal bovine serum, 100 U/ml penicillin and 100 µg/ml streptomycin. […] The experiments were performed in a physiological saline solution containing (in mM) 140 NaCl, 5 KCl, 10 glucose, 10 HEPES, 2 CaCl2, and 1 MgCl2, buffered to pH 7.4 with NaOH. Compounds were applied to cells by local continuous microperfusion of solution through a fine tube placed in close proximity of the cells studied. […] Analyses of emission intensity ratios at 340 nm/380 nm excitation (R, in individual cells) were performed using the ImageMaster suite of software. […] Cells grown in 96 well black walled plates (Costar, Tewksbury, MA) were loaded with Fura 2-AM in the presence of 1 mM probenecid at 37°C for 1–1.5 hours and assays were carried out at 25°C. Basal emission ratios (340 nm/380 nm) were measured and changes in ratio determined at various times after compound addition.

Question: What does the source list for `CC(=O)C=O` [MG, methylglyoxal]?
Answer: effect of DTT (2 mM) on agonist-evoked TRPA1 current (TRPA1 [1]): dramatically accelerated the TRPA1 current decay; outward TRPA1 current after removal of agonist (TRPA1 [1]): partially decayed with time after removal of MG; EC50 (TRPA1 [2]): 74 µM; current in DRG neurons (DRG neurons): evoked robust inward currents; [Ca2+]i-influx response (MDCK cells; 5 mM): evoked [Ca^2+]i-influx responses; EC50 (MDCK cells; read-out: EC50, [Ca2+]i-responses): 2200 ± 400 µM
